Legend:
[1] = system: B16-OVA cells; assay: Calreticulin externalization assay (flow cytometry); format: cell-based, mouse; settings: within 60 minutes of treatment
Experimental: Calreticulin externalization was determined as previously detailed (Gomez-Cadena et al. 2016). Briefly, cells (A431, MM649, B16-OVA) cultured in complete medium at 37° C., 5% CO2 were detached via trypsinisation, centrifuged at 1,200 rpm and washed ×2 with fresh medium. After an additional round of centrifugation, the resultant cell pellet was resuspended at a concentration of 1×10^6 cells/ml, after which epoxytigliane was added to a final concentration of 500 or 300 μM. Ethanol only controls were also performed. Cell suspensions were incubated at 37° C., 5% CO2 and at the indicated timepoints, 200 μl of sample was removed and incubated with LIVE/DEAD fixable far red stain for 5 mins on ice. Following this, cells were pelleted at 1,200 rpm for 4 mins and washed ×1 with PBS. 500 μl of PBS, 0.25% formaldehyde was then added to each pellet to perform a light fixation without compromising plasma membrane integrity. […]
Samples were gated by FSC-H v FSC-A first to identify single cells, after which the LIVE/DEAD stain (Ex: 640 nm, Em: 670/14) negative (intact cell) population was analysed for green fluorescence (Ex: 488 nm, Em: 530/30; calreticulin externalization). Mean fluorescence intensity values were subsequently determined and graphed versus time.

[2] = system: A431 cells; assay: HMGB1 release assay (ELISA); format: cell-based, human; settings: within 120 minutes
Experimental: (§1) A431 (human epidermoid carcinoma), MM649 (human melanoma) and B16-OVA (B16-F10 mouse melanoma cell line stably transfected with chicken ovalbumin) were cultured in RPMI-1640, 10% FCS (complete medium) at 37° C., 5% CO2 in a humidified incubator. BMDCs were cultured in R10 media (RPMI, 10% FCS, 2 mM glutamine, 50 μM beta-mercaptoethanol, Pen/Strep). All cell lines used in this study were confirmed as mycoplasma negative using MycoAlert (Lonza). STR profiling was also performed to confirm the identity of the human cell lines used.
(§2) Cell lines (A431, MM649 and B16-OVA) were plated into T75 cm^2 flasks (Nunc) in 10 ml of complete media and cultured at 37° C., 5% CO2 until they reached 90% confluency. Compounds 1, 2, 3 and 4 were diluted in 5 ml of identical media to a final concentration of 500 and 300 μM and then administered to the cells. Several flasks were prepared such that a kinetic curve of HMGB1 release in response to drug treatment could be established. Ethanol only controls were also generated. At the required timepoint, media was removed from the flask into a 10 ml polypropylene tube that was placed on ice for 5 mins. […] OD450 nm values were determined using a Hybrid Synergy H4 plate reader (BioTek). Absorbance values from drug treated samples were normalized to vehicle treated samples to determine the fold increase in HMGB1 release in response to epoxytigliane treatment.

[3] = system: MM649 cells; assay: HMGB1 release assay (ELISA); format: cell-based, human; settings: within 120 minutes
Experimental: as §1, §2

[4] = system: A431 cells; assay: Lactate dehydrogenase (LDH) release assay; format: cell-based, human; settings: 300 μM and 500 μM
Experimental: as §1, with “melanoma),” for “melanoma) and”, “ovalbumin), MM415 (human melanoma) and FaDu (human hypopharyngeal carcinoma) cells” for “ovalbumin)”, “incubator.” for “incubator. BMDCs were cultured in R10 media (RPMI, 10% FCS, 2 mM glutamine, 50 μM beta-mercaptoethanol, Pen/Strep).”
(§3) Measuring the release of LDH is a well-recognised assay to assess plasma membrane permeabilisation and detect cell death by necrosis (Chan et al. 2013). Three cell lines (A431, MM649 and B16-OVA) were used in these assays. Cells were plated at a density of 10,000 cells per well into clear 96-well plates (Corning, #3595; 100 μl of complete media) and the resultant plates incubated overnight as previously detailed. The following day, media was aspirated from each well and 50 μl of fresh medium was inserted. Stock solutions of Compound 1 were diluted to 2× final assay concentrations (1 mM and 600 μM) and 50 μl of these dilutions added to the required wells. […] OD490 nm and OD690 nm readings were recorded for each sample using a Hybrid Synergy H4 plate reader. Absorbance readings from drug treated samples were normalized to detergent treated controls to determine the % LDH release per well.

[5] = system: MM649 cells; assay: Lactate dehydrogenase (LDH) release assay; format: cell-based, human; settings: 300 μM and 500 μM
Experimental: as §1, with “melanoma),” for “melanoma) and”, “ovalbumin), MM415 (human melanoma) and FaDu (human hypopharyngeal carcinoma) cells” for “ovalbumin)”, “incubator.” for “incubator. BMDCs were cultured in R10 media (RPMI, 10% FCS, 2 mM glutamine, 50 μM beta-mercaptoethanol, Pen/Strep).”
as §3

[6] = system: A431 cells; assay: Intracellular ATP assay (CellTiter-Glo 2.0); format: cell-based, human
Experimental: (§4) CellTiter-Glo® 2.0 assay kits (Promega Corporation), a luminescence based assay quantitating the amount of ATP present in cells, were used to determine intracellular ATP levels in cultures of A431 and MM649 exposed to two concentrations (300 μM and 500 μM) of Compound 1. Again, cells were plated at a density of 10,000 cells per well into a clear bottomed black 96-well plates (in 100 μl of complete medium) and incubated at 37° C., 5% CO2 overnight. At the time of assay, media was aspirated from each well and 50 μl of fresh medium was inserted. Stock solutions of Compound 1 were diluted to 2× final assay concentrations (1 mM and 600 μM) and 50 μl of these dilutions added to the required wells. Ethanol only control solutions were also compiled and administered. At the indicated time points, media was gently removed making sure not to disturb the cells and 100 μl of CellTiter-Glo® 2.0 Reagent added. The resultant plate was mixed on an orbital shaker for 2 mins to induce cell lysis after which it was incubated in the dark for 10 mins. Following this, the luminescent signal in each well was determined. Luminescent signals from compound treated wells were normalised to Vehicle treated wells and expressed as % intracellular ATP vs. time.

[7] = system: MM649 cells; assay: Intracellular ATP assay (CellTiter-Glo 2.0); format: cell-based, human
Experimental: as §4

C/C=C(\C)C(=O)O[C@@H]1[C@@H](C)[C@@]2(O)[C@H]([C@@H]3C(C)(C)[C@]13OC(=O)[C@@H](C)CC)[C@@H]1O[C@]1(CO)[C@@H](O)[C@]1(O)C(=O)C(C)=C[C@H]12 [Compound 1, 12-tigloyl-13-(2-methylbutanoyl)-6,7-epoxy-4,5,9,12,13,20-hexahydroxy-1-tiglien-3-one]
calreticulin externalisation (mean fluorescence intensity) [1]: significant increases in mean fluorescence intensity
increase in HMBG1 release, normalised to vehicle treated cells [2]: up to 40%
increase in HMBG1 release, normalised to vehicle treated cells [3]: up to 40%
LDH release compared to the controls [4]: significant release of LDH
LDH release compared to the controls [5]: significant release of LDH
intracellular ATP ([6]; 300 μM, after 120 minutes): approximately 50 % of the pre-treatment level
intracellular ATP levels ([6]; 500 μM, after 60 minutes): almost undetectable
intracellular ATP ([7]; 300 μM, after 120 minutes): approximately 50 % of the pre-treatment level
intracellular ATP levels ([7]; 500 μM, after 60 minutes): almost undetectable
